{
  "source": "patent US9873698B2",
  "about": "“Spirocycles as inhibitors of 11-beta hydroxyl steroid dehydrogenase type 1” (Incyte Corporation, priority 2007, dated 2018)",
  "origin": "cited, not measured here",
  "target": "T1, 11βHSD1 (Homo sapiens, UniProt P28845)",
  "T1 construct": "host or cells: healthy volunteers, eye (in vivo)",
  "T1 sequence (P28845 whole entry)": "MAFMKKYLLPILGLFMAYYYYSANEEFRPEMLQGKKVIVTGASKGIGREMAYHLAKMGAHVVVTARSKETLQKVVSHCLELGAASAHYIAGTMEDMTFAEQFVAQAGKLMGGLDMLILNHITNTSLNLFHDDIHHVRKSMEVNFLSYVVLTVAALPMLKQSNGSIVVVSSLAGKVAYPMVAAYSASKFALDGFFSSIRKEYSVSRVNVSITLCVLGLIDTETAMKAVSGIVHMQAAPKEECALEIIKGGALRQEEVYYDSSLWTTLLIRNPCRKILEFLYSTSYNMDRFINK",
  "conditions": "healthy volunteers, after seven days of carbenoxolone treatment",
  "data": [
    {"compound": "CC1(C)[C@@H](OC(=O)CCC(=O)O)CC[C@]2(C)[C@H]3C(=O)C=C4[C@@H]5C[C@@](C)(C(=O)O)CC[C@]5(C)CC[C@@]4(C)[C@]3(C)CC[C@@H]12", "note": "[carbenoxolone]", "values": [
      {"measurement": "IOP reduced by", "value": 18, "unit": "%"}
    ]}
  ]
}
